The values below come from BindingDB's records for doi:10.1074/jbc.M209367200 (University of Padova, 2003).

For this assay, the target named is Casein kinase II subunit alpha (Zea mays, UniProt P28523). In words: Kinase Inhibition Assay. As to conditions: pH 7.5; 22 °C. Here is the method:
In vitro kinase assay using purified enzyme, was incubated at room temperature with substrate, and test compounds in the presence of 100 uM ATP/ [gamma-33P] ATP. 33P incorporation was measured with scintillation counter. IC50 values were calculated from dose-response curves; from these calculated apparent inhibition constants (Ki) were obtained using the Cheng-Prusoff equation: Ki = IC50/ (1 + ([ATP]/Km)).

Sequence of Casein kinase II subunit alpha (P28523 whole entry): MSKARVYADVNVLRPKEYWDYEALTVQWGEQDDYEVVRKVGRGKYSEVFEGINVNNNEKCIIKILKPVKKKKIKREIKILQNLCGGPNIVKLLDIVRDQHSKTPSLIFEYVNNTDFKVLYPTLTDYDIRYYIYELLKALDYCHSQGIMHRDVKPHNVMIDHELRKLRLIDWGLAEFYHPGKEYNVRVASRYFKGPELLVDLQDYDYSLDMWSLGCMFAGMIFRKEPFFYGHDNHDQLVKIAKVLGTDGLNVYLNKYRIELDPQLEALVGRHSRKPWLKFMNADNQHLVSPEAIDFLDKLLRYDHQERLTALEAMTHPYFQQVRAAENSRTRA

Compound `O=c1c2c(O)cccc2oc2cccc(O)c12` [1,8-dihydroxy-9H-xanthen-9-one] yielded a Ki greater than 40 µM. With `O=C1c2cccc(O)c2C(=O)c2c(O)cccc21` [1,8-dihydroxy-anthraquinone] the figure was greater than 40 µM.
